Measured values as given in ChEMBL document CHEMBL6096713, “Tetrazole Is a Novel Zinc Binder Chemotype for Carbonic Anhydrase Inhibition” (ACS Med Chem Lett, 2025).

Experiments:
Carbonic anhydrase 9 = Carbonic anhydrase 9 (Homo sapiens, UniProt Q16790)
Description: Inhibition of human recombinant carbonic anhydrase 9 assessed as inhibition constant incubated for 15 mins by stopped-flow technique

Carbonic anhydrase 1 = Carbonic anhydrase 1 (Homo sapiens, UniProt P00915)
Description: Inhibition of human recombinant carbonic anhydrase I assessed as inhibition constant incubated for 15 mins by stopped-flow technique

Carbonic anhydrase 2 = Carbonic anhydrase 2 (Homo sapiens, UniProt P00918)
Description: Inhibition of human recombinant carbonic anhydrase 2 assessed as inhibition constant incubated for 15 mins by stopped-flow technique

Carbonic anhydrase 12 = Carbonic anhydrase 12 (Homo sapiens, UniProt O43570)
Carbonic anhydrase 12, sequence (O43570 whole entry): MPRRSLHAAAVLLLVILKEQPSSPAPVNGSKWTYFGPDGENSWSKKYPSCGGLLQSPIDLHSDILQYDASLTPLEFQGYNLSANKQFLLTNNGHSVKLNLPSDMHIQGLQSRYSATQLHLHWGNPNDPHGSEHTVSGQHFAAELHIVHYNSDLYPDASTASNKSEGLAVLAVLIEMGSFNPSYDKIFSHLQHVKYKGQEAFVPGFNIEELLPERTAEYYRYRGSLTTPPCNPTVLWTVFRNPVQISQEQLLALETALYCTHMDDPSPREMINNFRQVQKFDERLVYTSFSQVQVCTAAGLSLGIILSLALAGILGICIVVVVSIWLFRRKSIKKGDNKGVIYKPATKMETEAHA
Description: Inhibition of human recombinant carbonic anhydrase 12 assessed as inhibition constant incubated for 15 mins by stopped-flow technique

Carbonic anhydrase 1, sequence (P00915 whole entry): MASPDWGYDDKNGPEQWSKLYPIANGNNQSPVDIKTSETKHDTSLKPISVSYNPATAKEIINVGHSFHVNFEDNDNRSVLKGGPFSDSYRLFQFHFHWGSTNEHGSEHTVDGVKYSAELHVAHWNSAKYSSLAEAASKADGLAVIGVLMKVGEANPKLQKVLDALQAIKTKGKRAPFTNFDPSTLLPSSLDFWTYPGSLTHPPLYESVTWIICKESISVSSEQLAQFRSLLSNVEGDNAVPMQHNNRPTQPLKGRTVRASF

- Ki (Carbonic anhydrase 9): 7.68 µM
- Ki (Carbonic anhydrase 1): 4.21 µM
- Ki (Carbonic anhydrase 2): 5.97 µM
- Ki (Carbonic anhydrase 12): 8.21 µM
SMILES: O=C(O)Cc1nnn[nH]1
